Test results from patent publication US20230031406A1, “COMPOUNDS AND COMPOSITIONS FOR TREATING CONDITIONS ASSOCIATED WITH NLRP ACTIVITY” (Novartis AG, priority 2018, published 2023).
Read-outs that look alike come from different tables or passages of the source.

Tested on: PMA-differentiated THP-1 cells
Assay: IL-1β production in PMA-differentiated THP-1 cells stimulated with gramicidin (hTHP-1 assay containing 2% fetal bovine serum; Procedures 1 and 2)
Type: cell-based, human
Settings: 2% fetal bovine serum
Summary of the method: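 IL-1β release from PMA-differentiated THP-1 macrophage-like cells was triggered by 5 μM gramicidin for 2 h after 1 h compound exposure, then measured by HTRF.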

[1] = Table B2, class symbols, read-out: hTHP-1 IC50
[2] = Homo sapiens, THP-1, Table B2, class symbols, read-out: hTHP-1 IC50

IC50 [1] | IC50 [2] | Compound | other results
5 to 30 µM |  | Cc1c(C2CC2)nc2c(c1NC(=O)N=S(N)(=O)c1cc(C(C)(C)O)cs1)CCC2C (single isomer, unassigned) [Compound 656b, (S, S) or (S, R) or (R, S) or (R, R)-N′-((2-Cyclopropyl-3,7-dimethyl-6,7-dihydro-5H-cyclopenta[b]pyridin-4-yl)carbamoyl)-4-(2-hydroxypropan-2-yl)thiophene-2-sulfonimidamide] | 
5 to 30 µM |  | CC1(C)CCc2c1nc1c(c2NC(=O)N=S(N)(=O)c2sc(C(C)(O)CO)cc2F)CCC1 (single isomer, unassigned) [Compound 699c, (R, S) and (S, S) or (S, R) and (R, R)-5-(1,2-Dihydroxypropan-2-yl)-N′-((3,3-dimethyl-1,2,3,5,6,7-hexahydrodicyclopenta [b,e]pyridin-8-yl)carbamoyl)-3-fluorotliophene-2-sulfonimidamide] | 
 |  | CCc1c(C)nc2c(c1NC(=O)N=S(N)(=O)c1cnc(C(C)(C)O)s1)CCC2 (single isomer, unassigned) [Compound 117a, (S) or (R)-N′-((3-ethyl-2-methyl-6,7-dihydro-5H-cyclopenta[b]pyridin-4-yl)carbamoyl)-2-(2-hydroxypropan-2-yl)thiazole-5-sulfonimidamide] | IC50 (Homo sapiens, THP-1, Table B1, numeric bounds, read-out: Average IC50 of compounds in hTHP-1 assay: hTHP-1 IC50): > 30 µM
 | 5 to 30 µM | CCn1ccc([S@@](N)(=O)=NC(=O)Nc2c3c(nc4c2CCC42CC2)CCC3)n1 [Compound 604a] | 
 | 1 to 5 µM | CC(C)(O)c1sc(S(N)(=O)=NC(=O)Nc2c3c(nc4c2CCC4)CCC3)cc1F (single isomer, unassigned) [Compound 678a, (R) or (S)-4-Fluoro-N′-((1,2,3,5,6,7-hexahydrodicyclopenta [b,e]pyridin-8-yl)carbamoyl)-5-(2-hydroxypropan-2-yl)thiophene-2-sulfonimidamide] | 
5 to 30 µM |  | COCc1nc(C(C)(C)O)sc1S(N)(=O)=NC(=O)Nc1c2c(nc3c1CCC3(C)C)CCC2 (single isomer, unassigned) [Compound 170b, (S) or (R)-N′-((3,3-dimethyl-1,2,3,5,6,7-hexahydrodicyclopenta [b,e]pyridin-8-yl)carbamoyl)-2-(2-hydroxypropan-2-yl)-4-(methoxymethyl) thiazole-5-sulfonimidamide] | 
 |  | CC(C)(O)c1ncc(S(N)(=O)=NC(=O)Nc2c3c(nc4c2CCC4)CCC3)s1 (single isomer, unassigned) [Compound 128a, (R) or (S)-N′-((1,2,3,5,6,7-hexahydrodicyclo-penta[b,e]pyridin-8-yl)carbamoyl)-2-(2-hydroxypropan-2-yl)thiazole-5-sulfonimidamide] | IC50 (Table B1, class symbols, read-out: Average IC50 of compounds in hTHP-1 assay: hTHP-1 IC50): 0.2 to 1 µM
 |  | CCn1cc(F)c(S(N)(=O)=NC(=O)Nc2c(C)c(C(F)(F)F)nc3c2CCC3)n1 (single isomer, unassigned) [Example 650, (S) or (R)-1-ethyl-4-fluoro-N′-((3-methyl-2-(trifluoromethyl)-6,7-dihydro-5H-cyclopenta[b]pyridin-4-yl)carbamoyl)-1H-pyrazole-3-sulfonimidamide] | IC50 (Table B3, hTHP-1 assay, class symbols, read-out: IC50): 1 to 5 µM
5 to 30 µM |  | CCC1CCc2c1nc1c(c2NC(=O)N=S(N)(=O)c2cnc(C(C)(C)O)s2)CCC1 (single isomer, unassigned) [Compound 662d, (R, R) or (R, S) or (S, R) or (S, S)-N′-((3-Ethyl-1,2,3,5,6,7-hexaliydrodicyclopenta [b,e]pyridin-8-yl)caibamoyl)-2-(2-hydroxypropan-2-yl)thiazole-5-sulfonimidamide] | 
 | 5 to 30 µM | CC(C)(O)c1ncc(S(N)(=O)=NC(=O)Nc2c3c(nc4c2CCC4C(=O)O)CCC3)s1 (stereo not shown) [Compound 703, 8-(3-(Amino(2-(2-hydroxypropan-2-yl)thiazol-5-yl)(oxo)-λ^6-sulfanylidene)ureido)-1,2,3,5,6,7-hexahydrodicyclopenta[b,e] pyridine-3-carboxylic acid] | 
